From patent publication US8129345B2, “MUC1-IκB kinase complexes and their activities” (Dana-Farber Cancer Institute, Inc., priority 2006, dated 2012)

Assays:
MCF-10A cells = test: TNFα stimulation of MCF-10A cells, immunoprecipitation and immunoblotting of fractions; assay type: cell-based, Human; conditions: 20 ng/ml TNFα
Experimental: FIG. 10B is a pair of photographs of immunoblots. Lysates from MCF-10A cells left untreated (0) or stimulated with 20 ng/ml TNFα for the indicated times (0.5, or 2 hours) were immunoprecipitated with anti-IKKβ (left) or anti-IKKγ (right). The immunoprecipitates were immunoblotted with antibodies specific to MUC1-C, and either IKKβ (left panel) or IKKγ (right panel) as loading controls. The molecular weights of proteins (as indicated on the left of the photographs) are expressed as kilodaltons (kDa).
FIG. 10C is a series of photographs of immunoblots. MCF-10A cells were left untreated (0) or stimulated with 20 ng/ml TNFα for the indicated times. Cytosolic and nuclear fractions of the cells were prepared and subjected to immunoblotting with the indicated antibodies. The molecular weights of proteins (as indicated on the left of the photographs) are expressed as kilodaltons (kDa).
(§1) Cell culture. Human HCT116 colon carcinoma cells, HeLa cervical carcinoma cells and MCF-7 breast cancer cells were grown in Dulbecco's modified Eagle's medium with 10% heat-inactivated fetal bovine serum, 100 units/ml penicillin, […] streptomycin and 2 mM L-glutamine. Human ZR-75-1 breast cancer cells were grown in RPMI1640 medium containing 10% heat-inactivated fetal bovine serum, antibiotics and L-glutamine. Human MCF-10A breast epithelial cells were grown in mammary epithelial cell growth media (MEGM; Cambrex Corp.).
Subcellular fractionation. Nuclear and cytosolic fractions were prepared as described in Kharbanda et al. (1996) Cancer Res. 56:3617-3621.
(§2) Immunoprecipitation and immunoblotting. Lysates from subconfluent cells were prepared as described in Ren et al. (2004) Cancer Cell 5:163-175. Soluble proteins were incubated with anti-IKKβ (Cell Signaling Technology) or anti-IKKγ (Santa Cruz Biotechnology) for 2 h at 4° C. […] The immune complexes were detected with horseradish peroxidase-conjugated secondary (anti-IgG) antibodies (Amersham Biosciences) and enhanced chemiluminescence (ECL; Amersham Biosciences). […]

MCF-7 cells = test: TNFα treatment of MCF-7 cells, MUC1-C binding to IKKs; assay type: cell-based, Human
Experimental: as §1, §2

Substance: TNFα
- phosphorylation and degradation of IκBα (MCF-10A cells; MCF-10A cytosolic fractions): associated with phosphorylation and degradation of IκBα
- targeting of NF-κB p65 to the nucleus (MCF-10A cells; MCF-10A nuclear fractions): targeting of NF-κB p65 to the nucleus
- binding of MUC1-C to IKKβ and IKKγ (MCF-10A cells; MCF-10A): increased binding
- binding of MUC1-C to IKKβ or IKKγ (MCF-7 cells): no apparent effect
